From US20210330611A1, “THERAPY FOR NEUROLOGICAL DISEASES/DISORDERS” (priority 2020, published 2021)
Counter-ions that a name gives are not always drawn. Like-named read-outs stand apart in the source and are kept apart here.

Key:
[1] = test system: fibrin-induced microglia activation; assay: Image-based assay of fibrin-induced microglia activation (HTS and dose response); assay type: cell-based, rat; conditions: primary microglia HTS, fibrin stimulation; for inhibition at 10 µM: Rattus norvegicus, Microglia, read-out: Fibrin % inhibition
[2] = test system: LPS-induced microglia activation; assay: Image-based assay of LPS-induced microglia activation (HTS and dose response); assay type: cell-based, rat; conditions: for inhibition at 10 µM: Rattus norvegicus, Microglia, read-out: LPS % inhibition
[3] = test system: fibrin- and LPS-induced microglia activation; assay: cells; assay type: cell-based, rat
primary rat microglia [4] = assay: Cell toxicity (dead cells, size <150 μm2) in coated fibrin (cFib) assay; conditions: primary microglia HTS;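 note: share of dead cells sized under 150 µm2 at 10 µM in fibrin-stimulated microglia HTS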
primary rat microglia [5] = test system: primary rat microglia
[6] = primary microglia HTS, LPS stimulation, compounds at 10 μM
[7] = quadrant by fibrin and LPS inhibition, HTS at 10 μM
[8] = fibrin assay, dead cells (size <150 μm2)
[9] = cell size >800 μm2 as marker of activation
[10] = classification by fibrin and LPS inhibition in HTS
[11] = fibrin stimulation, cell size <150 μm2 as marker of toxicity
[12] = classification by fibrin and LPS inhibition, HTS at 10 μM
[13] = fibrin assay, dead cells (size <150 μm2), compounds at 10 μM

| Molecule | inhibition at 10 µM ([1]; compounds at 10 μM) [%] | inhibition at 10 µM [2, 6] [%] | Quadrant (FIG. 5b) [3, 7] | Fibrin % cell toxicity (primary rat microglia [4]; [8]) [%] | LPS % cell toxicity (primary rat microglia [5]; rat) [%] | Quadrant (FIG. 5b) [3, 12] | Fibrin % cell toxicity (primary rat microglia [4]; [13]) [%] | also measured |
| --- | --- | --- | --- | --- | --- | --- | --- | --- |
| O=C1c2c(O)cccc2Cc2cccc(O)c21 [Anthralin] | -10 | 13 | Q4 | 1 | 1 |  |  |  |
| CC[C@H](C)C(=O)O[C@H]1C[C@H](O)C=C2C=C[C@H](C)[C@H](CC[C@@H](O)C[C@@H](O)CC(=O)O)[C@H]21 [Pravastatin Sodium] |  |  |  |  | 0 |  |  | Fibrin % inhibition [1, 9]: 21%; LPS % inhibition [2]: 11%; Quadrant (FIG. 5b) [3, 10]: Q4; Fibrin % cell toxicity (primary rat microglia [4]; [11]): 1% |
| Br.CN1[C@H]2C[C@H](OC(=O)[C@H](CO)c3ccccc3)C[C@@H]1[C@@H](O)C2 [Anisodamine Hydrobromide] |  |  | Q4 | 1 |  |  |  | Fibrin % inhibition ([1]; compounds at 10 μM): −41%; LPS % inhibition [2, 6]: 4%; LPS % cell toxicity (primary rat microglia [5]): 0% |
| CC(CN(C)C)CN1c2ccccc2Sc2ccccc21 (stereo not drawn) [Alimemazine] | 32 | 39 | Q4 | 1 | 0 |  |  |  |
| CN(C)CCc1c[nH]c2ccc(Cn3cncn3)cc12 [Rizatriptan] |  |  |  |  | 0 |  |  | inhibition at 10 µM [1, 9]: -9%; inhibition at 10 µM ([2]; 48 h): 10%; Quadrant (FIG. 5b) [3, 10]: Q4; Fibrin % cell toxicity (primary rat microglia [4]; [11]): 1% |
| CC(=O)N[C@@H](CC(=O)N[C@@H](CCC(=O)O)C(=O)O)C(=O)O [Spaglumic Acid] |  |  |  |  | 0 |  |  | inhibition at 10 µM [1, 9]: -15%; inhibition at 10 µM ([2]; 48 h): 15%; Quadrant (FIG. 5b) [3, 10]: Q4; Fibrin % cell toxicity (primary rat microglia [4]; [11]): 1% |
| Nc1ccc(C(=O)O)cc1 [4-Aminobenzoic Acid] | -31 | 13 | Q4 | 1 | 1 |  |  |  |
| Eprinomectin |  |  |  |  |  | Q4 | 1 | Fibrin % inhibition ([1]; compounds at 10 μM): −3%; LPS % inhibition [2, 6]: 8%; LPS % cell toxicity (primary rat microglia [5]): 1% |
| CC[C@H]1OC(=O)[C@H](C)[C@@H](O[C@H]2C[C@@](C)(OC)[C@@H](O)[C@H](C)O2)[C@H](C)[C@@H](O[C@@H]2O[C@H](C)C[C@H](N(C)C)[C@H]2O)[C@](C)(O)C[C@@H](C)[C@@H]2N[C@@H](COCCOC)O[C@H]([C@H]2C)[C@]1(C)O [Dirithromycin] | 7 | 27 |  |  | 1 | Q4 | 1 |  |
| CCOC(=O)[C@H](CCc1ccccc1)N[C@@H](C)C(=O)N1[C@H](C(=O)O)C[C@@H]2CCC[C@@H]21 [Ramipril] |  |  |  |  | 0 |  |  | inhibition at 10 µM [1, 9]: 8%; inhibition at 10 µM ([2]; 48 h): 16%; Quadrant (FIG. 5b) [3, 10]: Q4; Fibrin % cell toxicity (primary rat microglia [4]; [11]): 0% |
| c1ccc(CN(CC2=NCCN2)c2ccccc2)cc1 [Antazoline] | -2 | 17 | Q4 | 1 | 1 |  |  |  |
| NCC(CC(=O)O)c1ccc(Cl)cc1 (racemic) [(±)-baclofen, Baclofen] |  |  | Q4 | 0 |  |  |  | Fibrin % inhibition ([1]; compounds at 10 μM): −8%; LPS % inhibition [2, 6]: 9%; LPS % cell toxicity (primary rat microglia [5]): 0% |
| CCC1(C2=NCCN2)Cc2ccccc2O1 (stereo not drawn) [Efaroxan, Efaroxan Hydrochloride] |  |  |  |  |  | Q4 | 1 | Fibrin % inhibition ([1]; compounds at 10 μM): 1%; LPS % inhibition [2, 6]: 5%; LPS % cell toxicity (primary rat microglia [5]): 0% |
| CCN(CC)CCOC(=O)C(c1ccccc1)c1ccccc1 [Adiphenine Hydrochloride] | -30 | 12 | Q4 | 1 | 0 |  |  |  |
| CC(=O)Nc1ccc(OC(C)=O)cc1 [Diacetamate] | -25 | 21 |  |  | 0 | Q4 | 1 |  |
| CC(C)c1c(CN(C)C(C)Cc2ccccc2)n(C)n(-c2ccccc2)c1=O (stereo not drawn) [Famprofazone] | -3 | 15 |  |  | 0 | Q4 | 1 |  |
| COC(=O)/C=C/C(=O)OC [Dimethyl Fumarate] | 4 | 16 |  |  | 0 | Q4 | 0 |  |
| Cc1ccccc1N1CCN(CCc2nnc3n2CCCC3)CC1 [Dapiprazole] | -9 | 14 |  |  | 0 | Q4 | 1 |  |

| Molecule | inhibition at 10 µM ([1]; compounds at 10 μM) [%] | inhibition at 10 µM [2, 6] [%] | Quadrant (FIG. 5b) [3, 7] | Fibrin % cell toxicity (primary rat microglia [4]; [8]) [%] | LPS % cell toxicity (primary rat microglia [5]; rat) [%] | Quadrant (FIG. 5b) [3, 12] | Fibrin % cell toxicity (primary rat microglia [4]; [13]) [%] | also measured |
| --- | --- | --- | --- | --- | --- | --- | --- | --- |
| CCCCCCCCCCCCCCCCCCCCCCO [Docosanol] | -10 | -2 |  |  | 0 | Q4 | 0 |  |
| CC(=O)OC/C=C(C)/C=C/C=C(C)/C=C/C1=C(C)CCCC1(C)C [Retinyl Acetate] |  |  |  |  | 0 |  |  | inhibition at 10 µM [1, 9]: 3%; inhibition at 10 µM ([2]; 48 h): 15%; Quadrant (FIG. 5b) [3, 10]: Q4; Fibrin % cell toxicity (primary rat microglia [4]; [11]): 1% |
| NC(=O)c1ccc([N+](=O)[O-])cc1Cl [Aklomide] | -18 | -2 | Q4 | 0 | 0 |  |  |  |
| C#CCN(C)Cc1ccccc1 [Pargyline] |  |  |  |  | 0 |  |  | inhibition at 10 µM [1, 9]: -25%; inhibition at 10 µM ([2]; 48 h): 11%; Quadrant (FIG. 5b) [3, 10]: Q4; Fibrin % cell toxicity (primary rat microglia [4]; [11]): 1% |
| C[C@H]1COc2c(C3(N)CC3)c(F)cc3c(=O)c(C(=O)O)cn1c23 [Pazufloxacin Mesylate, Pazufloxacin] |  |  |  |  |  |  |  | Fibrin % inhibition [1, 9]: −10%; LPS % inhibition [2]: 11%; Quadrant (FIG. 5b) [3, 10]: Q4; Fibrin % cell toxicity (primary rat microglia [4]; [11]): 1%; LPS % cell toxicity (primary rat microglia [5]): 0% |
| CC(=O)Nc1ccc(OC(=O)c2ccccc2O)cc1 [Acetaminosalol] | -15 | 20 | Q4 | 1 | 1 |  |  |  |
| COC(=O)CCc1ccc(OCC(O)CNC(C)C)cc1 (stereo not drawn) [Esmolol, Esmolol Hydrochloride] |  |  |  |  |  | Q4 | 1 | Fibrin % inhibition ([1]; compounds at 10 μM): −15%; LPS % inhibition [2, 6]: 2%; LPS % cell toxicity (primary rat microglia [5]): 0% |
| CN[C@@H]1[C@H](O)[C@H](NC)[C@H]2O[C@@]3(O)C(=O)C[C@@H](C)O[C@H]3O[C@@H]2[C@H]1O [Spectinomycin] |  |  |  |  | 0 |  |  | inhibition at 10 µM [1, 9]: 14%; inhibition at 10 µM ([2]; 48 h): 19%; Quadrant (FIG. 5b) [3, 10]: Q4; Fibrin % cell toxicity (primary rat microglia [4]; [11]): 0% |
| Cc1c(N(C)C)c(=O)n(-c2ccccc2)n1C [Aminophenazone] | -41 | 20 | Q4 | 1 | 1 |  |  |  |
| CC(C)c1ccc2oc3nc(N)c(C(=O)O)cc3c(=O)c2c1 [Amlexanox] | -17 | -4 | Q4 | 0 | 0 |  |  |  |
| CCc1cn([C@H]2C[C@H](O)[C@@H](CO)O2)c(=O)[nH]c1=O [Edoxudine] | -10 | 1 |  |  | 0 | Q4 | 0 |  |
| CC(C)(CO)[C@@H](O)C(=O)NCCCO [Dexpanthenol] | -1 | 11 |  |  | 0 | Q4 | 0 |  |
| CC[C@H](C)C(=O)O[C@H]1C[C@H](O)C=C2C=C[C@H](C)[C@H](CC[C@@H](O)C[C@@H](O)CC(=O)O)[C@H]21 [Pravastatin] |  |  |  |  | 0 |  |  | Fibrin % inhibition [1, 9]: 10%; inhibition at 10 µM ([2]; 48 h): 10%; Quadrant (FIG. 5b) [3, 10]: Q4; Fibrin % cell toxicity (primary rat microglia [4]; [11]): 1% |
| CC(=O)[C@H]1CC[C@H]2[C@@H]3CC[C@@H]4C[C@H](O)CC[C@]4(C)[C@H]3CC[C@]12C [Eltanolone] | -6 | 4 |  |  | 0 | Q4 | 1 |  |
| CN1CCC(=C2c3ccccc3CCc3cccnc32)CC1 [Azatadine] | -9 | 7 | Q4 | 1 | 0 |  |  |  |
| CC(C)(C)NCC(O)COc1cccc2c1CC(O)C(O)C2 (stereo not drawn) [Nadolol] | 107 | 108 | Q2 | 4 | 3 |  |  |  |
| CCN(CC)C(=O)c1ccc(O)c(OC)c1 [Etamivan] | -16 | 16 |  |  | 0 | Q4 | 1 |  |
| N#C[C@@H]1C[C@@H]2C[C@@H]2N1C(=O)[C@@H](N)C12CC3CC(CC(O)(C3)C1)C2 [Saxagliptin] |  |  |  |  | 0 |  |  | inhibition at 10 µM [1, 9]: 34%; inhibition at 10 µM ([2]; 48 h): 38%; Quadrant (FIG. 5b) [3, 10]: Q4; Fibrin % cell toxicity (primary rat microglia [4]; [11]): 1% |
